In PubChem BioAssay AID248 (DTP/NCI, 2004):
Inconclusive results and toxic doses are left out. Rule as the data show it: active = T/C of 150% or more; inactive = T/C below 125%.

Test system: L1210 leukemia ip in BDF1 mice, survival T/C
Test: NCI In Vivo Anticancer Drug Screen. Data for tumor model L1210 Leukemia (intraperitoneal) in B6D2F1 (BDF1) mice
Conditions: endpoint: mean survival time, higher = longer survival
Method in brief: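 Read-out is survival time, reported as the treated-group measurement over the vehicle-control measurement.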

[1] = dose: 5.0 mg/kg/injection, schedule: Q01DX001 (ip), vehicle: saline
[2] = dose: 10.0 mg/kg/injection, schedule: Q01DX001 (ip), vehicle: saline
[3] = dose: 20.0 mg/kg/injection, schedule: Q01DX001 (ip), vehicle: saline
[4] = dose: 25.0 mg/kg/injection, schedule: Q01DX009 (ip), vehicle: saline
[5] = dose: 40.0 mg/kg/injection, schedule: Q01DX001 (ip), vehicle: saline
[6] = dose: 50.0 mg/kg/injection, schedule: Q01DX009 (ip), vehicle: saline
[7] = dose: 80.0 mg/kg/injection, schedule: Q01DX001 (ip), vehicle: saline
[8] = dose: 100.0 mg/kg/injection, schedule: Q04DX003 (ip), vehicle: saline with Tween-80
[9] = dose: 200.0 mg/kg/injection, schedule: Q04DX003 (ip), vehicle: saline with Tween-80
[10] = dose: 400.0 mg/kg/injection, schedule: Q04DX003 (ip), vehicle: saline with Tween-80
[11] = dose: 100.0 mg/kg/injection, schedule: Q04DX003 (ip), vehicle: Klucel (hydroxypropylcellulose) (HPC)
[12] = dose: 200.0 mg/kg/injection, schedule: Q04DX003 (ip), vehicle: Klucel (hydroxypropylcellulose) (HPC)
[13] = dose: 400.0 mg/kg/injection, schedule: Q04DX003 (ip), vehicle: Klucel (hydroxypropylcellulose) (HPC)
[14] = dose: 100.0 mg/kg/injection, schedule: Q01DX001 (ip), vehicle: Klucel (hydroxypropylcellulose) (HPC)
[15] = dose: 200.0 mg/kg/injection, schedule: Q01DX001 (ip), vehicle: Klucel (hydroxypropylcellulose) (HPC)
[16] = dose: 100.0 mg/kg/injection, schedule: Q01DX009 (ip), vehicle: saline
[17] = dose: 100.0 mg/kg/injection, schedule: Q01DX009 (ip), vehicle: Klucel (hydroxypropylcellulose) (HPC)
[18] = dose: 200.0 mg/kg/injection, schedule: Q01DX009 (ip), vehicle: Klucel (hydroxypropylcellulose) (HPC)
[19] = dose: 400.0 mg/kg/injection, schedule: Q01DX001 (ip), vehicle: Klucel (hydroxypropylcellulose) (HPC)
[20] = dose: 100.0 mg/kg/injection, schedule: Q01DX001 (ip), vehicle: saline
[21] = dose: 200.0 mg/kg/injection, schedule: Q01DX001 (ip), vehicle: saline
[22] = dose: 400.0 mg/kg/injection, schedule: Q01DX001 (ip), vehicle: saline
[23] = dose: 100.0 mg/kg/injection, schedule: Q01DX009 (ip), vehicle: saline with Tween-80
[24] = dose: 200.0 mg/kg/injection, schedule: Q01DX009 (ip), vehicle: saline with Tween-80
[25] = dose: 400.0 mg/kg/injection, schedule: Q01DX009 (ip), vehicle: saline with Tween-80

Measured: T/C

CNCCCN1c2ccccc2CCc2ccccc21
inactive: dose: 3.12 mg/kg/injection, schedule: Q01DX009 (ip), vehicle: saline 123 % of control | [1] 105 % of control | dose: 6.25 mg/kg/injection, schedule: Q01DX009 (ip), vehicle: saline 115 % of control | [2] 100 % of control | dose: 12.5 mg/kg/injection, schedule: Q01DX009 (ip), vehicle: saline 115 % of control | [3] 111 % of control | [4] 110 % of control | dose: 25.0 mg/kg/injection, schedule: Q04DX003 (ip), vehicle: saline 101 % of control | [5] 95 % of control | [6] 106 % of control | dose: 50.0 mg/kg/injection, schedule: Q04DX003 (ip), vehicle: saline 97 % of control | [7] 92 % of control

CC1C(=O)OC2C1CCC1(C)C3(C)C(=O)C=CC213 (stereo not drawn)
inactive: dose: 75.0 mg/kg/injection, schedule: Q01DX001 (ip), vehicle: saline 97 % of control | dose: 150.0 mg/kg/injection, schedule: Q01DX001 (ip), vehicle: saline 106 % of control | dose: 300.0 mg/kg/injection, schedule: Q01DX001 (ip), vehicle: saline 95 % of control

Cc1cc(C)c(I)c(C(=O)O)c1
inactive: [8] 95 % of control | [9] 104 % of control | [10] 104 % of control

CN(C)c1ccc(C=Nc2cc(Cl)ccc2Cl)cc1
inactive: [11] 89 % of control | [12] 88 % of control | [13] 89 % of control

CS(=O)(=O)CCN1C(=O)C2C3CCC(O3)C2C1=O (stereo not drawn)
inactive: dose: 100.0 mg/kg/injection, schedule: Q04DX002 (ip), vehicle: saline with Tween-80 112 % of control | dose: 200.0 mg/kg/injection, schedule: Q04DX002 (ip), vehicle: saline with Tween-80 108 % of control | dose: 400.0 mg/kg/injection, schedule: Q04DX002 (ip), vehicle: saline with Tween-80 97 % of control

Cc1ccc(-n2c(O)c(N=Nc3ccc(Br)cc3)c(=O)n(-c3ccccc3)c2=S)cc1
inactive: dose: 50.0 mg/kg/injection, schedule: Q01DX001 (ip), vehicle: Klucel (hydroxypropylcellulose) (HPC) 97 % of control | [14] 111 % of control | [15] 94 % of control

CN(C(=O)/C=C/C(=O)O)c1ccccc1
inactive: [4] 104 % of control | [6] 110 % of control | dose: 50.0 mg/kg/injection, schedule: Q04DX003 (ip), vehicle: saline with Tween-80 98 % of control | [16] 105 % of control | [8] 101 % of control | dose: 200.0 mg/kg/injection, schedule: Q01DX009 (ip), vehicle: saline 96 % of control | [9] 95 % of control | [10] 97 % of control

CC(=O)NNS(=O)(=O)c1ccccc1
inactive: [14] 102 % of control | [17] 106 % of control | [15] 100 % of control | [18] 95 % of control | [19] 105 % of control

COc1ccc(C(C)=O)c(O)c1OC
inactive: [20] 101 % of control | [21] 101 % of control | [22] 98 % of control

Cc1c(C)c2c(C(N)=O)c3ccccc3nc2c2ccccc12
inactive: dose: 50.0 mg/kg/injection, schedule: Q04DX003 (ip), vehicle: Klucel (hydroxypropylcellulose) (HPC) 100 % of control | [11] 100 % of control | [12] 92 % of control | [13] 97 % of control

CCCCN(CCCC)c1ccc(/C=C/c2ccncc2)cc1
inactive: [14] 95 % of control | [17] 93 % of control | [15] 101 % of control | [18] 101 % of control | [19] 96 % of control | dose: 400.0 mg/kg/injection, schedule: Q01DX009 (ip), vehicle: Klucel (hydroxypropylcellulose) (HPC) 90 % of control

CC1(C)N=C(N)N=C(N)N1c1cccc(OCCCOc2cccc([N+](=O)[O-])c2)c1
inactive: [1] 100 % of control | [2] 97 % of control | [3] 97 % of control | [5] 100 % of control | [7] 95 % of control

CC(=O)N1c2cc3ccccc3cc2N(C(C)=O)c2cc3ccccc3cc21
inactive: dose: 100.0 mg/kg/injection, schedule: Q01DX001 (ip), vehicle: acetone 92 % of control | [23] 103 % of control | dose: 200.0 mg/kg/injection, schedule: Q01DX001 (ip), vehicle: acetone 90 % of control | [24] 106 % of control | dose: 400.0 mg/kg/injection, schedule: Q01DX001 (ip), vehicle: acetone 88 % of control | [25] 95 % of control

O=[N+]([O-])c1ccccc1Sc1ccc2c3c(cccc13)CN(CCCO)C2
inactive: dose: 100.0 mg/kg/injection, schedule: Q04DX002 (ip), vehicle: Klucel (hydroxypropylcellulose) (HPC) 90 % of control | dose: 200.0 mg/kg/injection, schedule: Q04DX002 (ip), vehicle: Klucel (hydroxypropylcellulose) (HPC) 108 % of control | dose: 400.0 mg/kg/injection, schedule: Q04DX002 (ip), vehicle: Klucel (hydroxypropylcellulose) (HPC) 104 % of control

O=CNc1ccc(C(=O)O)cc1
inactive: [23] 95 % of control | [24] 100 % of control | [25] 95 % of control

CCCCOC(=O)C=O
inactive: dose: 50.0 mg/kg/injection, schedule: Q01DX009 (ip), vehicle: saline with Tween-80 106 % of control | [23] 97 % of control

CC(=O)CC(C)=Nc1ccc([N+](=O)[O-])cc1.CC(=O)CC(C)=Nc1ccc([N+](=O)[O-])cc1.[Cu]
inactive: dose: 12.5 mg/kg/injection, schedule: Q01DX001 (ip), vehicle: saline with Tween-80 93 % of control | dose: 25.0 mg/kg/injection, schedule: Q01DX001 (ip), vehicle: saline with Tween-80 88 % of control | dose: 50.0 mg/kg/injection, schedule: Q01DX001 (ip), vehicle: saline with Tween-80 91 % of control

Cc1cc2oc(=O)c3c(c2c(O)c1CN1CCCC1)CCCC3
inactive: [20] 92 % of control | [21] 89 % of control | [22] 98 % of control

O=[N+]([O-])c1cccc(/C=N/N2CCN(/N=C/c3cccc([N+](=O)[O-])c3)CC2)c1
inactive: [20] 102 % of control | [21] 92 % of control | [22] 96 % of control

CC1CCc2nc(C#N)c(N)nc2C1 (stereo not drawn)
inactive: dose: 50.0 mg/kg/injection, schedule: Q01DX009 (ip), vehicle: Klucel (hydroxypropylcellulose) (HPC) 103 % of control | [17] 97 % of control | [18] 106 % of control

Cn1c(O)c(N)c(=O)n(C)c1=O
inactive: [6] 98 % of control | [16] 92 % of control

CCCCCCCCCCCCN1CC1
inactive: dose: 10.0 mg/kg/injection, schedule: Q01DX009 (ip), vehicle: Klucel (hydroxypropylcellulose) (HPC) 108 % of control | dose: 20.0 mg/kg/injection, schedule: Q01DX009 (ip), vehicle: Klucel (hydroxypropylcellulose) (HPC) 109 % of control
